Consider 4 molecules from EPA's ToxValDB 9.5 (doi:10.2903/j.efsa.2006.65r).

Converted amounts (≈) assume the structure as drawn. “And” between values parts separate entries of the source, which are not always exact repeats. Equal entries are not always repeated.

Series [1] relates to Apis mellifera. As to conditions: acute, mortality.
Series [2] has as its system Canidae. The conditions noted are these: oral, Dog Other, clinical signs.
Series [3] relates to Colinus virginianus.
Series [4] relates to Oncorhynchus mykiss.
Series [5] relates to Daphnia magna. The conditions noted are these: chronic/long-term; duration: 21 days.
Series [6] has as its system Tagia sp.
Series [7] relates to Rattus norvegicus.
In series [8] the test system is Lepomis macrochirus. As to conditions: acute, duration: 96 hours.
In series [9] the test system is Bibionidae. The conditions noted are these: chronic/long-term.
In series [10] the test system is Cyprinodon variegatus.
Series [11] relates to Aphidius rhopalosiphi. The series can be described thus: LR50; higher = less toxic. The conditions noted are these: not reported; mortality.
Series [12] concerns Pontoscolex corethrurus. As to conditions: acute; mortality.
Series [13] relates to Neomysis kadiakensis. The conditions noted are these: chronic/long-term; duration: 28 days.
Setting [14] is: short-term, duration: 5 days, oral, diet, food consumption.

A word on the NOAEL: it is the highest tested level that showed no adverse finding. Regarding `N#Cc1nn(-c2c(Cl)cc(C(F)(F)F)cc2Cl)c(N)c1S(=O)C(F)(F)F` (centres undefined) [Fipronil], the LD50 in series [1] (dermal) stood at 0.00593 µg/piece; in series [1] (oral, unspecified), 0.00417 µg/piece; in series [3] (acute, oral, mortality), 11.3 mg/kg; in [7] (acute, oral, M, mortality), 92 mg/kg. The NOAEL in [2] (chronic, duration: 1 years) was determined as 0.35 mg/kg-day; in series [2] (subchronic, duration: 90 days), 0.35 mg/kg-day; in series [7] (chronic, duration: 2 years, clinical signs), 0.02 mg/kg-day; in series [7] (developmental, development), 0.9 mg/kg-day; in [7] (subchronic, duration: 90 days, oral, clinical signs), 0.35 mg/kg-day. In addition, the NOEL in [3] (reproduction developmental) was found to be 0.88 mg/kg-day; in series [3] (setting [14]) it was 3.77 mg/kg-day; in series [7] (reproduction developmental, M, reproduction) it was 2.53 mg/kg-day. Moreover, the NOEC in [4] (chronic/long-term, duration: 90 days) came out at 0.015 mg/L; in series [5], 0.0098 mg/L; in [6] (chronic/long-term) it was 1000 mg/kg; in [9], 0.193 µg/kg; in series [9] (duration: 28 days), 0.000117 mg/L; in series [10] (chronic/long-term, duration: 138 days), 0.006 mg/L. Moreover, the LC50 in [6] (acute, mortality) was above 1000 mg/kg; in series [8] (mortality) it was 0.0852 µg/mL (≈ 0.195 µM); in series [10] (acute, duration: 96 hours) it was 0.13 µg/mL (≈ 0.297 µM). This molecule yielded an LR50 in series [11] of 0.01 g/ha.

Consider `N#Cc1nn(-c2c(Cl)cc(C(F)(F)F)cc2Cl)c(N)c1C(F)(F)F` [Fipronil desulfinyl], for which the NOEL in series [3] (setting [14]) was 7.12 mg/kg-day.

`N#Cc1nn(-c2c(Cl)cc(C(F)(F)F)cc2Cl)c(N)c1S(=O)(=O)C(F)(F)F` [Fipronil sulfone]: the LC50 is above 1000 mg/kg in [12] and 0.025 µg/mL (≈ 0.0552 µM) in [8]. Also, the NOEL in series [3] (setting [14]) is 7.83 mg/kg-day. The NOEC in [9] worked out at 6.9e-05 mg/L; in [9] (duration: 28 days) it was 0.165 µg/kg.

Turning to `N#Cc1nn(-c2c(Cl)cc(C(F)(F)F)cc2Cl)c(N)c1SC(F)(F)F` [Fipronil sulfide], the LC50 was above 1000 mg/kg in series [12] and 0.0295 µg/mL (≈ 0.07 µM) in [4] (acute, duration: 96 hours, mortality). In series [3] (setting [14]), this molecule yielded an NOEL of 6.98 mg/kg-day. Besides, the NOEC in series [5] was 0.013 mg/L; in [13], 4.6e-06 mg/L; in [9] (duration: 28 days), 0.000117 mg/L and 0.000193 mg/kg.
